{"source": "patent US10206894B2", "about": "“Compounds for use in treatment of mucositis” (priority 2011, dated 2019)", "system": "fractionated radiation and cisplatin induced oral mucositis, left buccal cheek pouch", "assay_type": "in vivo", "details": "for peak mean mucositis score: peak on Day 19", "method": "Seventy (70) male Syrian Golden Hamsters were used in this example. Mucositis was induced using a combination of fractionated radiation and cisplatin. Cisplatin was administered on Days 0 and 6 at a dose of 5 mg/kg by i.p. injection. Each hamster was administered a total radiation dose of 60 Gy directed to their left buccal cheek pouch split into eight equal fractions of 7.5 Gy provided on Days 0, 1, 2, 3, 6, 7, 8 and 9. Radiation was generated with a 160 kilovolt potential (15-ma) source at a focal distance of 50 cm, hardened with a 0.35 mm Cu filtration system. Irradiation targeted the left buccal pouch mucosa at a rate of 2.0 Gy/minute. Prior to irradiation, animals were anesthetized with an i.p. injection of ketamine (160 mg/mL) and xylazine (8 mg/mL). The left buccal pouch was everted, fixed and isolated using a lead shield. Test materials were administered topically to the left cheek pouch three times daily, as detailed in Table 3 at a dose of 3 mg/mL in a volume of 0.5 mL per dose, either on the days of radiation (Days 0-3, 6-9), the days on which radiation was not administered (−1, 4, 5 and 10), Days 0-12 or Days 0-35. Mucositis in the left cheek pouch was evaluated clinically starting on Day 7, and continuing on alternate days until Day 35. On Day 35, all animals were euthanized by CO2 inhalation and death was confirmed by monitoring heartbeat in accordance with USDA guidelines.\nThe mucositis score, weight change and survival were measured throughout the study. For the evaluation of mucositis, the animals were anesthetized with an inhalation anesthetic, and the left pouch everted. Mucositis was scored visually by comparison to a validated photographic scale, ranging from 0 for normal, to 5 for severe ulceration (as described above in Example 2). A score of 1-2 is considered to represent a mild stage of the disease, whereas a score of 3-5 is considered to indicate moderate to severe mucositis. Following visual scoring, a digital image was taken of each animal's mucosa using a standardized technique. At the conclusion of the experiment, images were randomly numbered and scored by two independent trained observers graded the photographs in blinded fashion using the above-described scale (blinded scoring).\nThe grade of mucositis was scored, beginning on day 7, and for every second day thereafter, through and including day 35, The effect on mucositis of each drug treatment compared to placebo was assessed according to the following parameters: the difference in the number of days hamsters in each group had ulcerative (score ≥3) mucositis and the rank sum differences in daily mucositis scores.\nOn each evaluation day, the number of animals with a blinded mucositis score of ≥3 in each drug treatment group was compared to the control group. Differences were compared on a cumulative basis and statistical significance was determined by chi-square analysis. Efficacy, in this analysis, is defined by a significant reduction in the number of days that a group of animals had ulcerations (scores ≥3) when compared to the control group.\nFor each evaluation day the scores of the control group were compared to those of the treated groups using non-parametric rank sum analysis. Treatment success was considered as a statistically significant lowering of scores in the treated group on 2 or more days from day 6 to day 28.\nAll animals were weighed daily and their survival recorded to assess possible differences in animal weight among treatment groups as an indication for mucositis severity and/or possible toxicity resulting from the treatments. No deaths were observed during this study.\nAn analysis of the severity of mucositis was performed using the Mann-Whitney rank sum analysis to compare the scores for each treatment group to the controls on each day of the analysis. In this analysis, 2 days of significant reduction in the mucositis score are generally required before it is regarded as meaningful.", "note": "Like-named read-outs stand apart in the source and are kept apart here.", "data": [{"smiles": "N=C(N)NCCCCC(=O)Nc1cc(C(F)(F)F)cc(NC(=O)c2cc(C(=O)Nc3cc(C(F)(F)F)cc(NC(=O)CCCCNC(=N)N)c3OC3CCNC3)ncn2)c1OC1CCNC1", "note": "(centres unmarked) [Compound X]", "values": [{"measurement": "mucositis scores vs saline control group (Mann-Whitney rank sum)", "setting": "3 mg/mL tid Day 0 until Day 35, Days 11 (p=0.002), 13 (p=0.023), 15-35 (p<0.001)", "result": "statistically significant reductions"}, {"measurement": "mucositis scores vs Kleptose control group (Mann-Whitney rank sum)", "setting": "3 mg/mL tid Day 0 until Day 35, Days 17-35 (p<0.001 for all days)", "result": "statistically significant reductions"}, {"measurement": "peak mean mucositis score", "setting": "3 mg/rid (in Kleptose vehicle), dosed Days 0-3 and 6-9", "result": 3.1}, {"measurement": "% reduction of animal days with OM scores ≥ 3", "setting": "Fractionated Radiation", "result": 92.6, "unit": "%"}, {"measurement": "percentage of hamsters in which an ulcer formed during the study", "setting": "dosed Day 0 to Day 35, 100% in saline and vehicle controls", "result": 10, "unit": "%"}, {"measurement": "ulceration rate", "setting": "dosed Days 0-3 and 6-9, on Day 17, continued until Day 29", "result": 100, "unit": "%"}, {"measurement": "percentage of animal days with a score of 3 or higher", "setting": "dosed Days 0-3 and 6-9, saline control 54.7%", "result": 58.0, "unit": "%"}, {"measurement": "maximum mean mucositis score", "setting": "dosed Days 0-12, maximum on Days 19, 21 and 23", "result": 3.1}, {"measurement": "ulceration rate", "setting": "dosed Days 0-12, on Day 17, continued until Day 27", "result": 100, "unit": "%"}, {"measurement": "percentage of animal days with a score of 3 or higher", "setting": "dosed Days 0-12, saline control 54.7%", "result": 58.0, "unit": "%"}, {"measurement": "maximum mean mucositis score", "setting": "dosed Days 0-35, maximum on Days 19 and 21", "result": 2.1}, {"measurement": "ulceration rate", "setting": "dosed Days 0-35, on Days 15-23 (single hamster)", "result": 10, "unit": "%"}, {"measurement": "percentage of animal days with a score of 3 or higher (incidence of ulcerative oral mucositis)", "setting": "dosed Days 0-35, saline control 54.7%, Kleptose vehicle 56.0%, p<0.001", "result": 3.3, "unit": "%"}, {"measurement": "ulceration rate", "setting": "dosed Days −1, 4, 5, and 10, on Day 19 only", "result": 100, "unit": "%"}, {"measurement": "peak mean mucositis score", "setting": "dosed Days −1, 4, 5, and 10", "result": 3.1}, {"measurement": "percentage of animal days with a score of 3 or higher", "setting": "dosed Days −1, 4, 5, and 10, saline control 54.7%", "result": 48.0, "unit": "%"}, {"measurement": "mucositis scores vs control (Mann-Whitney rank sum)", "setting": "dosed Days −1, 4, 5 and 10, Days 21 (p=0.018), 23, 25 (p=0.040), 33, 35 (p=0.036)", "result": "statistically significant reductions"}, {"measurement": "daily mean mucositis scores and number of days animals exhibited ulceration", "setting": "fractionated radiation model, oral rinse 3 times daily, 35 day treatment regimen", "result": "significantly reduced"}, {"measurement": "adverse findings in weight gain, general behavior in the home cage, or clinical signs", "setting": "hamster, in vivo", "result": "no adverse findings"}, {"measurement": "adverse reaction to treatment", "setting": "hamster, in vivo", "result": "no evidence of any adverse reaction"}]}]}
